Test results: PMC4014701 (Pharmaceuticals, 2014)
Converted amounts (≈) assume the structure as drawn. Read-outs that look alike come from different tables or passages of the source.

Columns and labels:
MRP2 (MDCK-MRP2 cells) [1] = target: T1, MRP2 (MDCK-MRP2 cells) (Homo sapiens, UniProt Q92887); assay: [3H]-LPV uptake in MDCK-MRP2 cells; type: cell-based; design: A. Schinkel and P. Borst (Netherlands Cancer Institute); host or cells: MDCKII (MDCKII-MRP2), retrovirally transfected; conditions: for [3H]-LPV uptake, fold enhancement in presence of inhibitor: DPBS pH 7.4, 37 °C
Experimental: (§1) Confluent cells were then trypsinized and plated at a density of 3 × 10^6 cells in 12 well culture plates. Medium was replaced every alternate day until cells reached confluency (6–7 days). Cellular uptake studies were performed on confluent cell monolayers according to previously published protocol from our laboratory. Briefly, medium was removed and cell monolayer was washed with 2 mL of DPBS (130 mM NaCl, 0.03 mM KCl, 7.5 mM Na2HPO4, 1.5 mM KH2PO4, 1 mM CaCl2, 0.5 mM MgSO4, and 5 mM glucose, pH 7.4) three times at 37 °C (each wash of 10 min). […] Following incubation, radioactive solution was quickly removed and plates were washed with ice-cold stop solution (210 mM KCl, 2 mM HEPES, pH of 7.4) to arrest the uptake process. One mL of lysis buffer (0.1% Triton-X solution in 0.3% NaOH) was added to each well and plates were stored overnight at RT. Later, 500 µL solutions were transferred to scintillation vials containing 3 mL of scintillation cocktail. The radioactivity associated with cells was analyzed with a scintillation counter (Beckman Instruments Inc., Model LS-6500; Fullerton, CA, USA). Uptake rate was normalized to protein count which was quantified with a BioRad protein estimation kit.
(§2) Prior to initiation of uptake studies, cells were treated with efflux inhibitors for a period of 15 min. Uptake study was then initiated according to a procedure described in section 2.2.5.

[2] = Solubility study in distilled deionized water (DDW); conditions: for solubility at 24 h: distilled deionized water, water, thermodynamic from solid; for Solubility, fold higher relative to LPV: DDW; for Solubility in DDW: saturated solution, room temperature, 24 h
Experimental: Aqueous solubility study of prodrugs was performed according to the published protocol from our laboratory. Saturated solution of each prodrug was prepared in DDW in siliconized tubes. Tubes were placed in shaking water bath at room temperature (RT) for 24 h. Tubes were centrifuged at 10,000 rpm for 10 min to separate undissolved prodrugs. The supernatant was separated, filtered through 0.45 µm membrane (Nalgene syringe filter) and analyzed with HPLC after appropriate dilutions.
(§3) Aqueous solubility and buffer stability samples were measured with reversed phase HPLC technique. Waters 515 pump (Waters, Milford, MA, USA) connected to a UV detector (Absorbance Detector Model UV-C, RAININ, Dynamax, Palo Alto, CA, USA) was employed. A C(18) Kinetex column (100 × 4.6 mm, 2.6 µ; Phenomenex, Torrance, CA, USA) was pumped with mobile phase (1:1) acetonitrile and water (0.1% trifluoroacetic acid) at a flow rate of 0.3 mL/min. Analytes were detected with UV detection at a wavelength of 210 nm.

MDCK-WT cells = assay: Cytotoxicity, MTS assay; type: cell-based; conditions: 4 h incubation; for Reduction in absorbance (positive controls): medium containing 10% DMSO or 0.1% Triton-X
Experimental: Cytotoxicity of prodrugs was determined in MDCK-WT cells with MTS assay based cytotoxicity kit. Briefly, cells were grown overnight in 96 well plates at a density of 20,000 cells per well prior to drug and prodrug addition. […] Cells were then incubated for 4 h at 37 °C. Following incubation, 20 μL of MTS stock solution was added to each well and incubated for 2 h at 37 °C. […] The quantity of formazan product as measured by absorbance is directly proportional to the number of viable cells in test samples.

P-gp (MDCK-MDR1 cells) [3] = target: T2, P-gp (MDCK-MDR1 cells) (Homo sapiens, UniProt P08183); conditions: MDCK-MDR1, DPBS pH 7.4, 37 °C
Experimental: as §1, §2

[4] = Buffer stability (chemical hydrolysis) in DPBS; conditions: for Degradation half life: DPBS; for half-life at 50 µM: DPBS buffer
Experimental: Chemical hydrolysis study of prodrugs was carried out according to the previously published protocols from our laboratory. Degradation rate constant and half-life (t1/2) of prodrugs were determined at various pH. […] Microcentrifuge tubes were placed in shaking water bath (60 rpm) at 37 °C. Samples (100 µL) were withdrawn at predetermined time points and stored at −80° C until further analysis. Prodrug concentrations remaining were plotted versus time in order to calculate degradation rate constants.
as §3

P-gp (MDCK-MDR1 cells) [5] = target: T2, P-gp (MDCK-MDR1 cells); assay: Transepithelial transport across MDCK-MDR1 cells
Experimental: Samples were stored at −80 °C until further analysis.
Samples were extracted with liquid–liquid extraction technique.

[6] = tested on: CYP3A4 (rat liver microsomes); assay: Rat liver microsomal stability; conditions: for Half life in liver microsomes, fold higher compared to LPV: time dependent study
Experimental: (§4) One mL of microsomal solution was generated by adding microsomal protein (0.3 mg/mL), magnesium chloride (5 mM), glucose 6-phosphate (5 mM), b-NADP1 (1 mM), and glucose 6-phosphate dehydrogenase (1 U/mL) in phosphate buffer (100 mM, pH 7.4). […] The metabolic reaction was initiated by adding the NADPH generating system. NADPH generating system was freshly prepared by adding G-6-P, G-6-P DH and NADP in DDW. At predetermined time points, metabolic reaction was arrested by adding equal volumes of ice-cold acetonitrile to the sample. Samples were stored at −80 °C until further analysis by LCMS/MS technique.
(§5) This study was performed according to the previously published protocols from our laboratory. At predetermined time points, about 100 μL of samples were withdrawn and equal volume of acetonitrile was added to stop the degradation process. Degradation study was conducted for a period of 2 h. Samples were stored at −80 °C until further analysis.
(§6) Enzymatic degradation was arrested by adding equal amount of acetonitrile and samples were stored in −80 °C until further analysis.
(§7) Rat liver microsomes were employed at the concentration of 0.3 mg/mL. […] Liver microsomal solution was incubated with ketoconazole for 15 min prior to the initiation of stability study.

MRP2 (MDCK-MRP2 cells) [7] = target: T1, MRP2 (MDCK-MRP2 cells); assay: Transepithelial transport across MDCK-MRP2 cells
Experimental: Transwell® inserts were coated with type 1 rat tail collagen (100 µg/cm^2). Cells were seeded at a density of 250,000 cells per well. Transport studies were conducted across MDCK-MDR1 and MDCK-MRP2 cells in presence and absence of efflux inhibitors for a period of 3 h at 37 °C. Prior to the initiation of transport study, cell monolayer integrity was evaluated by monitoring transepithelial electric resistance (TEER), with an EVOM (epithelial volt ohmmeter from World Precision Instruments, Sarasota, FL, USA). TEER values of the cell monolayer were approximately 250 Ω*cm^2. Monolayers were washed thoroughly with DBPS (pH7.4) for 15 min at 37 °C, three times. […] At predetermined time points (30, 60, 120 and 180 min), 100 µL sample was withdrawn from the receiving chamber and replaced with fresh DPBS to maintain sink conditions. Samples were stored at −80 °C until further analysis. To determine the effect of efflux inhibitors, cells were treated GF 120918 (MDCK-MDR1) and MK 571 (MDCK-MRP2) prior to initiation of the transport study.
Samples were extracted with liquid–liquid extraction technique. About, 50 μL of verapamil (200 ng) was added as an internal standard to each sample. Analytes were extracted by vortexing with 800 μL water saturated ethyl acetate for 2.5 min. Following centrifugation at 10,000 rpm for 7 min, approximately 600 µL of ethyl acetate layer was collected and evaporated under reduce pressure for 45 min. The residue was reconstituted in 100 μL of acetonitrile (80%) and water (20%) containing 0.1% formic acid. Ten microliters of reconstituted samples were injected in LCMS/MS. Similarly, standard solutions were extracted from DPBS and quantified with LCMS/MS. […]
Transepithelial permeability was determined by plotting cumulative amount of analyte transported against time. […]
Transepithelial permeability was calculated by normalizing the steady-state flux with the donor concentration (Cd) according to Equation (2): Transepithelial permeability = flux/Cd (2)

P-gp (MDCK-MDR1 cells) [8] = target: T2, P-gp (MDCK-MDR1 cells); assay: Cellular uptake of unlabelled LPV and prodrugs in MDCK-MDR1 cells; type: in vitro ADME; design: A. Schinkel and P. Borst (Netherlands Cancer Institute); host or cells: MDCK (MDCK-MDR1), retrovirally transfected; conditions: 5 µM, 30 min
Experimental: About 500 µL of DMEM was added to each well and plates were kept in −80 °C overnight for cell lysis.

CYP3A4 = assay: Rat liver microsomal stability; conditions: Sprague Dawley, rat, pH 7.4
Experimental: as §4, §5, §6, §7

T2 sequence (P08183 whole entry): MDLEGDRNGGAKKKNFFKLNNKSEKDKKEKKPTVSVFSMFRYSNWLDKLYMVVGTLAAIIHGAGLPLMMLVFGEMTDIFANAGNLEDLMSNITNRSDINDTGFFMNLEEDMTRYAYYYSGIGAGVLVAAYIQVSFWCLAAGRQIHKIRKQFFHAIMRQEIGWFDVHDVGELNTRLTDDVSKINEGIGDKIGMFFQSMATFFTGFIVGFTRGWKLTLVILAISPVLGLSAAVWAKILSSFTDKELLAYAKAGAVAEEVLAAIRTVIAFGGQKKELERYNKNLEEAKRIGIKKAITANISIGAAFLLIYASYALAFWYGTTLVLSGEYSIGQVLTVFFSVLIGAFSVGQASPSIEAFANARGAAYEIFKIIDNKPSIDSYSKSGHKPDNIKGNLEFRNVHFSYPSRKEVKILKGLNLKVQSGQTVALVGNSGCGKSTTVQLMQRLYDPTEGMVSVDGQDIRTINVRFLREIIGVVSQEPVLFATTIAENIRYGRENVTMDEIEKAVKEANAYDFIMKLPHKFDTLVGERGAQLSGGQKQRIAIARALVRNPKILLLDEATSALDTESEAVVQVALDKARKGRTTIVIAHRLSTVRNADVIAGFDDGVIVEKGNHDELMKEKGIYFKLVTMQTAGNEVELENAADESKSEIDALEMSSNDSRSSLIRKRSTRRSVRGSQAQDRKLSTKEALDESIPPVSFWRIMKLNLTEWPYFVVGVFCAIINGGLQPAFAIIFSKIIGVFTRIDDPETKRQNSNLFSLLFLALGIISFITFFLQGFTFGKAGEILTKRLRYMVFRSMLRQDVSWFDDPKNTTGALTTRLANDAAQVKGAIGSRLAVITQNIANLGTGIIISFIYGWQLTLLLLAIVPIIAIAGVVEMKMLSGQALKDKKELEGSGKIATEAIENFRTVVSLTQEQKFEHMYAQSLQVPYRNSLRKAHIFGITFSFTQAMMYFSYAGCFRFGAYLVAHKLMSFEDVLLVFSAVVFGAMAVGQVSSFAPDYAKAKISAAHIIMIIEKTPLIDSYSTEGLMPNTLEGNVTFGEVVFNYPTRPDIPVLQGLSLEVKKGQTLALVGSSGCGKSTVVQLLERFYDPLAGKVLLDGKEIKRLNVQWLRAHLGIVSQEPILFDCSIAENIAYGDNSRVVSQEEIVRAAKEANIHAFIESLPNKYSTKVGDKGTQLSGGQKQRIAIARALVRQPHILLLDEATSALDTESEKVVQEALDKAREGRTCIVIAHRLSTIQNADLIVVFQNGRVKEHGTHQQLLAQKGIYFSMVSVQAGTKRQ
T1 sequence (Q92887 whole entry): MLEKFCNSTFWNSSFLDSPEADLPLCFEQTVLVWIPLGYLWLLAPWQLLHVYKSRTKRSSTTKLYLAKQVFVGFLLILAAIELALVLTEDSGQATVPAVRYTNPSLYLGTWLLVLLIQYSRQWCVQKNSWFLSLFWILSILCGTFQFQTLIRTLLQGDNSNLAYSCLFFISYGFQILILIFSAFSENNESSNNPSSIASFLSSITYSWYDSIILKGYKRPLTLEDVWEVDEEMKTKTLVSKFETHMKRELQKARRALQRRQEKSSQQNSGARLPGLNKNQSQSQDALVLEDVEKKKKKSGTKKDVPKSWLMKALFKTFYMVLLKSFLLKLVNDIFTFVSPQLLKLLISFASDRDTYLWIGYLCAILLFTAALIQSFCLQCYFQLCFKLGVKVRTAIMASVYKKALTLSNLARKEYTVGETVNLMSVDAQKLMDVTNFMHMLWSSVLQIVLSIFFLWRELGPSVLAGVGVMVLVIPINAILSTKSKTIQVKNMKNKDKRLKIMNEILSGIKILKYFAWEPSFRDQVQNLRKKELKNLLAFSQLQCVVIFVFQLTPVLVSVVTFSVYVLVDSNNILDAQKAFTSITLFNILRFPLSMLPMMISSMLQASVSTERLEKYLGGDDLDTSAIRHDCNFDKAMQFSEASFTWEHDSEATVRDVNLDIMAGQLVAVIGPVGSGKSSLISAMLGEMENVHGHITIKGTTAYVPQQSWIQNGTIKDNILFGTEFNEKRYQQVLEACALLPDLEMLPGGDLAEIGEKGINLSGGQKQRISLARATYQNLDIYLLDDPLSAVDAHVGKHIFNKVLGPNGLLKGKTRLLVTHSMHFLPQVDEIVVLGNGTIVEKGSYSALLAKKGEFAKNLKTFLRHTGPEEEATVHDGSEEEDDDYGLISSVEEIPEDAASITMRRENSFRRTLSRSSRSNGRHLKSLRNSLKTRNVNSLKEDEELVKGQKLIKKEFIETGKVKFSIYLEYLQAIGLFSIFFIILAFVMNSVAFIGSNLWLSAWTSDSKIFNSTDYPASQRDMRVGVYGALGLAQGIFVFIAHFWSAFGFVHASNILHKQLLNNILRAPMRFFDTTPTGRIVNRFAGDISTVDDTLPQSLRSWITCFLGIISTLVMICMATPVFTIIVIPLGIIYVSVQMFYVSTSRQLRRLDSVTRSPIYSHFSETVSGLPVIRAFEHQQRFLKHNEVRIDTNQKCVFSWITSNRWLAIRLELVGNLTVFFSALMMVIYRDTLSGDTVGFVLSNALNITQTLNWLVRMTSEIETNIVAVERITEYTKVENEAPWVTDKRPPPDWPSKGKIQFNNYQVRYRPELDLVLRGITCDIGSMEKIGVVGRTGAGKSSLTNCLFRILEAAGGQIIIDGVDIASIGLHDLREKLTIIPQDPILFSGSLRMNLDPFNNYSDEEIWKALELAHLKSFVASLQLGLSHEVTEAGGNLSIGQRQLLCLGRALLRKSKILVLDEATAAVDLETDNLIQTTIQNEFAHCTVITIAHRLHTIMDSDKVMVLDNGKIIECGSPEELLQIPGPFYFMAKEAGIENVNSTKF

## CN(C)C(=O)CCSC(SCCC(=O)O)c1cccc(/C=C/c2ccc3ccc(Cl)cc3n2)c1 (stereo not shown) [MK 571]
MRP2 (MDCK-MRP2 cells) [1]; 25 µM inhibitor
  [3H]-LPV uptake, fold enhancement in presence of inhibitor: 2.5 fold
MRP2 (MDCK-MRP2 cells) [1]; 75 µM inhibitor
  [3H]-LPV uptake, fold enhancement in presence of inhibitor: 3 fold

## Cc1cccc(C)c1OCC(=O)N[C@@H](Cc1ccccc1)[C@@H](O)C[C@H](Cc1ccccc1)NC(=O)[C@H](C(C)C)N1CCCNC1=O [LPV, lopinavir]
[2]
  solubility at 24 h: 40 ± 8 µg/mL (≈ 63.6 µM)
MDCK-WT cells; 100 µM
  Cytotoxicity: generated cytotoxic effects
P-gp (MDCK-MDR1 cells) [3]
  [3H]-LPV uptake in presence of increasing concentrations of test compound: elevated significantly
MRP2 (MDCK-MRP2 cells) [1]; MDCK-MRP2, DPBS pH 7.4, 37 °C
  [3H]-LPV uptake in presence of increasing concentrations of test compound: enhancement of [3H]-LPV uptake

## CSCCC(N)C(=O)OC(CC(Cc1ccccc1)NC(=O)C(C(C)C)N1CCCNC1=O)C(Cc1ccccc1)NC(=O)COc1c(C)cccc1C (stereo not shown) [Met-LPV, methionine-LPV]
[2]
  Solubility, fold higher relative to LPV: ~9 fold
  Solubility in DDW: 362 ± 21 µg/mL (≈ 476 µM)
[4]; pH 4, 37 °C
  Degradation half life: 119 ± 6 h
[4]; pH 5.5, 37 °C
  Degradation half life: 55 ± 6 h
[4]; pH 7.4, 37 °C
  Degradation half life: 6.2 ± 0.4 h
P-gp (MDCK-MDR1 cells) [5]
  A-B permeability, fold higher relative to LPV: ~2.3 fold
[6]
  Degradation rate constant in liver microsomal solution: ~3.6 ± 0.4 × 10^−^3 min^−^1
  Intrinsic clearance (Vmax/Km): 0.5 mL/min/mg protein
  Km: ~13 µM
  Half life in liver microsomes, fold higher compared to LPV: 1.6 to 1.8 fold
MRP2 (MDCK-MRP2 cells) [7]
  A-B permeability, fold higher relative to LPV: ~1.9 fold
P-gp (MDCK-MDR1 cells) [8]
  Cellular uptake, fold higher relative to LPV: ~2.4 fold

## Cc1cccc(C)c1OCC(=O)NC(Cc1ccccc1)C(CC(Cc1ccccc1)NC(=O)C(C(C)C)N1CCCNC1=O)OC(=O)C(N)Cc1c[nH]c2ccccc12 (stereo not shown) [Trp-LPV, tryptophan-LPV]
[2]
  Solubility, fold higher relative to LPV: ~7 fold
  Solubility in DDW: 274 ± 11 µg/mL (≈ 336 µM)
[4]; pH 4, 37 °C
  Degradation half life: 123 ± 14 h
[4]; pH 5.5, 37 °C
  Degradation half life: 50 ± 9 h
[4]; pH 7.4, 37 °C
  Degradation half life: 5.4 ± 0.3 h
P-gp (MDCK-MDR1 cells) [5]
  A-B permeability, fold higher relative to LPV: ~1.8 fold
[6]; read-out: Km (affinity constant), 0.5–40 µM, 5 min, microsomes 0.3 mg/mL, Michaelis-Menten fit
  Km: ~13.2 µM
[6]
  Half life in liver microsomes, fold higher compared to LPV: 1.6 to 1.8 fold
MRP2 (MDCK-MRP2 cells) [7]
  A-B permeability, fold higher relative to LPV: ~1.7 fold
P-gp (MDCK-MDR1 cells) [8]
  Cellular uptake, fold higher relative to LPV: ~1.8 fold

## CC(C)(C)CC(C)(C)c1ccc(OCCO)cc1 [Triton-X]
MDCK-WT cells
  Reduction in absorbance (positive controls): 90%

## C[S+](C)[O-] [DMSO]
MDCK-WT cells
  Reduction in absorbance (positive controls): 30%

## CCC(C)C(N)C(=O)OC(CC(Cc1ccccc1)NC(=O)C(C(C)C)N1CCCNC1=O)C(Cc1ccccc1)NC(=O)COc1c(C)cccc1C (stereo not shown) [Ile-LPV, isoleucine-LPV]
[2]
  Solubility, fold higher relative to LPV: about 15 fold
  solubility at 24 h: 625 ± 27 µg/mL (≈ 842 µM)
[4]; pH 4
  half-life at 50 µM: 101 ± 29 h
[4]; pH 5.5
  half-life at 50 µM: 53 ± 10 h
[4]; pH 7.4
  half-life at 50 µM: 6.4 ± 0.3 h
P-gp (MDCK-MDR1 cells) [5]
  A-B permeability, fold higher relative to LPV: about 3 fold
[6]
  Half life in liver microsomes, fold higher compared to LPV: 1.6 to 1.8 fold
CYP3A4
  Km at 5 min: ~14.3 µM
MRP2 (MDCK-MRP2 cells) [7]
  A-B permeability, fold higher relative to LPV: about 2.8 fold
P-gp (MDCK-MDR1 cells) [8]
  Cellular uptake, fold higher relative to LPV: about 2.7 fold
